Values belong to the compound of their own block, whether it stands above or below them. Activity calls are given as the source filed them.
How the values were obtained:
Leucine aminopeptidase = target: T1, Leucine aminopeptidase (Plasmodium falciparum 3D7, UniProt Q8IL11); test: P. falciparum M17LAP inhibitors, primary screen, biochemical, fluorogenic H-Leu-NHMec substrate, 1536-well (AID 1619); format: functional
T1 sequence (Q8IL11 whole entry): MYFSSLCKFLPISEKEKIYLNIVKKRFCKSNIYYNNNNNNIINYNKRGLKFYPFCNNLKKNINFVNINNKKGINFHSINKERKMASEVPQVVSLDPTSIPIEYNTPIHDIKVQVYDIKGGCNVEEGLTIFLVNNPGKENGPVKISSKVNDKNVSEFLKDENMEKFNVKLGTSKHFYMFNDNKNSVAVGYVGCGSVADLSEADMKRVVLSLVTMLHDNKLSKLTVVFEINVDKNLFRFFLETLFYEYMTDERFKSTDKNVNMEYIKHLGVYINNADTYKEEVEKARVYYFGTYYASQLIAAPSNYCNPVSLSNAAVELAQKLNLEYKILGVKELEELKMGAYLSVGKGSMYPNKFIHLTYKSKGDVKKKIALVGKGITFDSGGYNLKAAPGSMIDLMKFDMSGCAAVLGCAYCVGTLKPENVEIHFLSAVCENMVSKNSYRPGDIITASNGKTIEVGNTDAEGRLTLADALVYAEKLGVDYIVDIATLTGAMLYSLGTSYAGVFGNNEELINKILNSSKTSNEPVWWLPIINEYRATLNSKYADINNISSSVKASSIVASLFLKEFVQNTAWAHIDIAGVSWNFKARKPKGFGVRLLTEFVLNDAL

[1] = target: Peroxisome proliferator-activated receptor gamma/Nuclear receptor coactivator 3 (Homo sapiens, UniProt P37231); test: TR-FRET dose response biochemical High Throughput Screening assay for agonists of the steroid receptor coactivator 3 (SRC-3) recruitment by the peroxisome proliferator-activated receptor gamma (PPAR gamma): non-selective agonists. [Related pubchem assays: 1301 (Confirmation screen.), 1048 (Primary screen.)]; format: functional
[2] = target: Peroxisome proliferator-activated receptor gamma/Nuclear receptor coactivator 2 (Homo sapiens, UniProt P37231); test: (§1) TR-FRET dose response biochemical High Throughput Screening assay for agonists of the steroid receptor coactivator 2 (SRC-2) recruitment by the peroxisome proliferator-activated receptor gamma (PPAR gamma): non-selective agonists. [Related pubchem assays: 1297, 1032 ]; format: functional
[3] = target: Peroxisome proliferator-activated receptor gamma/Nuclear receptor coactivator 1 (Homo sapiens, UniProt P37231); test: as §1, with “1 (SRC-1)” for “2 (SRC-2)”, “assays (depositor defined):AID1300, AID1808, AID504735, AID631]” for “assays: 1297, 1032 ]”; format: protein assay
[4] = target: Tyrosine-protein phosphatase non-receptor type 12 (Homo sapiens, UniProt Q05209); test: SAR Selectivity Analysis of small molecule inhibitors of PEST using pCAP in a fluorescence assay. [Related pubchem assays (depositor defined):AID1779, AID1784, AID2135]; format: functional
[5] = target: T2, Tyrosine-protein phosphatase non-receptor type 22 (Homo sapiens, UniProt Q9Y2R2); test: SAR LYP1 Fluorescent Assay using OMFP substrate for In Vitro dose response studies - Set 2. [Related pubchem assays (depositor defined):AID1779, AID1784, AID2140, AID449726, AID488869]; format: functional
T2 sequence (Q9Y2R2 whole entry): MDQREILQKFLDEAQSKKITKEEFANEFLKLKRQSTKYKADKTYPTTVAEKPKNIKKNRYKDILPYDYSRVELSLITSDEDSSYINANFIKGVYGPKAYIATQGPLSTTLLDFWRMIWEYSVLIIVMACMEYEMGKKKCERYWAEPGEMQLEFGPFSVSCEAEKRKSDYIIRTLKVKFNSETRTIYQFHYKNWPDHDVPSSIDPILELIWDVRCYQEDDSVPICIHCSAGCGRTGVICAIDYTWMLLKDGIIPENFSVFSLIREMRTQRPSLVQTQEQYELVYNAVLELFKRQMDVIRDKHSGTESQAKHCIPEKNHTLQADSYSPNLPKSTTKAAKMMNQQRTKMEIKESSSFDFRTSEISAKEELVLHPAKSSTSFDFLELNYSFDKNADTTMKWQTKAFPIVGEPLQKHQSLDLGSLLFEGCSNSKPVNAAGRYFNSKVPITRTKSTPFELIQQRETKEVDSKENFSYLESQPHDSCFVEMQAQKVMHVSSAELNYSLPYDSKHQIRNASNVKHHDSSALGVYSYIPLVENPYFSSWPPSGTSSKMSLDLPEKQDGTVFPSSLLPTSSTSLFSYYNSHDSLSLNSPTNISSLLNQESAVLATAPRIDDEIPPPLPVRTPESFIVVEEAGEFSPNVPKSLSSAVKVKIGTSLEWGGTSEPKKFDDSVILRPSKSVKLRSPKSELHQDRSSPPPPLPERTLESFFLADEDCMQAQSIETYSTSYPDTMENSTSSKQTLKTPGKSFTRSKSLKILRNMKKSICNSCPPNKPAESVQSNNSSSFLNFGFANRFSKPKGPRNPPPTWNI

[6] = target: T2, Tyrosine-protein phosphatase non-receptor type 22; test: inhibition of lymphoid tyrosine phosphatase LYP – biochemical, pCAP fluorogenic substrate, fluorescence, set 3, SAR follow-up (AID 449727); format: functional
[7] = target: T2, Tyrosine-protein phosphatase non-receptor type 22; test: SAR LYP1 Fluorescent Assay using pCAP substrate for In Vitro dose response studies - Set 2. [Related pubchem assays (depositor defined):AID1779, AID1784, AID2135, AID449727]; format: functional
[8] = target: T3, Tyrosine-protein phosphatase non-receptor type 7 (Homo sapiens, UniProt P35236); test: inhibition of hematopoietic tyrosine phosphatase HePTP – biochemical, set 2, SAR follow-up (AID 449736); format: functional
T3 sequence (P35236 whole entry): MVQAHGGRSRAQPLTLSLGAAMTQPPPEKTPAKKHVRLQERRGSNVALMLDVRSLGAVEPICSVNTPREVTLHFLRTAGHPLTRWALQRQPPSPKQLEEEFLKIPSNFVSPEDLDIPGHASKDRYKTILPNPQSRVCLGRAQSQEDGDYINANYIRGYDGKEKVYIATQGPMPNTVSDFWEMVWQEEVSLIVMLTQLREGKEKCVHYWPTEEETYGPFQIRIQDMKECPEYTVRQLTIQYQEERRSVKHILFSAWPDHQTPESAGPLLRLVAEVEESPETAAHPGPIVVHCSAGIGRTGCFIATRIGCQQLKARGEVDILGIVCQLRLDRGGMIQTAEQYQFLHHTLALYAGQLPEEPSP

[9] = target: T2, Tyrosine-protein phosphatase non-receptor type 22; test: SAR LYP1 Fluorescent Assay using OMFP substrate for In Vitro dose response studies - Set 3. [Related pubchem assays (depositor defined):AID1779, AID1784, AID2140, AID2686]; format: functional
[10] = target: Intestinal-type alkaline phosphatase (Mus musculus, UniProt P24822); test: PubChem AID 488785; format: functional
Large T antigen = Large T antigen (Simian virus 40, UniProt P03070); format: functional, Betapolyomavirus macacae;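 also: Confirmatory-stage PubChem screen for compounds that inhibit SV40 T antigen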
[11] = target: Intestinal-type alkaline phosphatase (Homo sapiens, UniProt P09923); test: activation of human intestinal alkaline phosphatase – biochemical, dose response (AID 488873); format: functional
[12] = target: T4, Zinc finger protein mex-5 (Caenorhabditis elegans, UniProt Q9XUB2); test: potency of MEX-5 RNA-binding blockers – biochemical, C. elegans, fluorescence polarization, dose response (AID 1960)
T4 sequence (Q9XUB2 whole entry): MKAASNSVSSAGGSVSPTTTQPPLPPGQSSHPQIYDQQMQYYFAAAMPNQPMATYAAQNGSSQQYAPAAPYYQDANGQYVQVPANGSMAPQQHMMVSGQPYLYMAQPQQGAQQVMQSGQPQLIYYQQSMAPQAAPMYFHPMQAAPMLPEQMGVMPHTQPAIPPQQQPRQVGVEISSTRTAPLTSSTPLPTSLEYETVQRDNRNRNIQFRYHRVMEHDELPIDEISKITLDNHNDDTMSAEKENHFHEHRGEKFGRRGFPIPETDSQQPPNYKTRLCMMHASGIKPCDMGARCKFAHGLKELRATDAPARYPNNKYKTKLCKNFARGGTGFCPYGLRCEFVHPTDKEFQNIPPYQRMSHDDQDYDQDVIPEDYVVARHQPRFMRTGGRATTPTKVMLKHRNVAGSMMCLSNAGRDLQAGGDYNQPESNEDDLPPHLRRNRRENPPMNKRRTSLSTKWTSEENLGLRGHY

[13] = target: Ras and Rab interactor 1/Tyrosine-protein kinase ABL1 (Homo sapiens, UniProt P00519+Q13671); format: functional;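 also: biochemical TR-FRET dose-response test measuring inhibition of binding between Rin1 and Abl proteins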
Albumin = Albumin (Bos taurus, UniProt P02769); test: Counterscreen for inhibitors of T-cell receptor (TCR)-CD3 interaction: Fluorescence-based biochemical high throughput dose response assay to identify inhibitors of T-cell receptor (TCR)-CD3 interaction using a TAMRA-labeled BSA probe.; format: functional
[14] = target: T5, High affinity choline transporter 1 (Homo sapiens, UniProt Q9GZV3); test: human choline transporter blockers, potency – cell-based, 5-point CRC, membrane potential dye, dose response (AID 504840); format: functional
T5 sequence (Q9GZV3 whole entry): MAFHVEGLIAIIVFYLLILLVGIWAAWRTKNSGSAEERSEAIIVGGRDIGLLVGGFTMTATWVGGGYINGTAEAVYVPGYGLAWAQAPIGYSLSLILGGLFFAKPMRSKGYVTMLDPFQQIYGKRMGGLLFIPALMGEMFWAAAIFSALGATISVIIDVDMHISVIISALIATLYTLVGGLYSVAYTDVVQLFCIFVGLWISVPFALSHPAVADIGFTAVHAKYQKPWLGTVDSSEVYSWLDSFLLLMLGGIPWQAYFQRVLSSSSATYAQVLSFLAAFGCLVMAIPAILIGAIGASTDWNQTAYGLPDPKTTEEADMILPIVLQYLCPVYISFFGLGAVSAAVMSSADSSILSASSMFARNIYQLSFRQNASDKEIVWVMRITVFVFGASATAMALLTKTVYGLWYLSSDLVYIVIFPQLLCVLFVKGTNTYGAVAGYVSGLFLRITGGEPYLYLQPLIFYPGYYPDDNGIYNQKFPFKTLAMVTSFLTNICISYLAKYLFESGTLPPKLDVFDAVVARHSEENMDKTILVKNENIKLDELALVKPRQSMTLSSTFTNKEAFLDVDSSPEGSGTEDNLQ

[15] = target: T6, RNA-binding protein pos-1 (Caenorhabditis elegans, UniProt G5EF15); test: disruptors of C. elegans POS-1 RNA interaction – biochemical, fluorescence polarization, dose response (AID 1964);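 also: purified POS-1 fused to maltose binding protein made in E. coli; potency of compounds blocking POS-1 binding to fluorescent RNA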
T6 sequence (G5EF15 whole entry): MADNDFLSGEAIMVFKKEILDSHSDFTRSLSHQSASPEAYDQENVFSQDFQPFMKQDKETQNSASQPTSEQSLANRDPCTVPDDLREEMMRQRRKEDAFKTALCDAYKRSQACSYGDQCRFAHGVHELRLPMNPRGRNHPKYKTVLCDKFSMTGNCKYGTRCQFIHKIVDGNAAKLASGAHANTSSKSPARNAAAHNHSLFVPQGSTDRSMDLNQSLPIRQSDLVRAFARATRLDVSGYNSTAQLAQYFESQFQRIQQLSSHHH

[16] = target: T7, Alkaline phosphatase, tissue-nonspecific isozyme (Homo sapiens, UniProt P05186); test: TNAP enzyme inhibition by screening hits, dose response, selectivity assay for mouse IAP inhibitor project, biochemical, human TNAP, uHTS hits (AID 488906); format: functional
T7 sequence (P05186 whole entry): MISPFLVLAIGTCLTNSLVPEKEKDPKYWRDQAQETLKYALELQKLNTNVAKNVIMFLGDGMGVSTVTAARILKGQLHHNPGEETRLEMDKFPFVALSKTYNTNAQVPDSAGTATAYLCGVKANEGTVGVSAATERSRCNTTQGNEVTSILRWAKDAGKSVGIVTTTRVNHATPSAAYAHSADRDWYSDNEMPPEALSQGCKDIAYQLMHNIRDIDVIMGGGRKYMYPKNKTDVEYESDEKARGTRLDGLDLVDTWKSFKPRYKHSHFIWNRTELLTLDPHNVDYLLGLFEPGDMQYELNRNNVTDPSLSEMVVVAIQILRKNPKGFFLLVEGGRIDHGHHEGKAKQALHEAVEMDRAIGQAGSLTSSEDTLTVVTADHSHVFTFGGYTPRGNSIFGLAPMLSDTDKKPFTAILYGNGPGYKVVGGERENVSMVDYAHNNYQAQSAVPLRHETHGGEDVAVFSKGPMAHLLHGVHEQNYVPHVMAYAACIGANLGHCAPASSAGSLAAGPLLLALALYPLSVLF

Chain of Albumin (P02769 whole entry): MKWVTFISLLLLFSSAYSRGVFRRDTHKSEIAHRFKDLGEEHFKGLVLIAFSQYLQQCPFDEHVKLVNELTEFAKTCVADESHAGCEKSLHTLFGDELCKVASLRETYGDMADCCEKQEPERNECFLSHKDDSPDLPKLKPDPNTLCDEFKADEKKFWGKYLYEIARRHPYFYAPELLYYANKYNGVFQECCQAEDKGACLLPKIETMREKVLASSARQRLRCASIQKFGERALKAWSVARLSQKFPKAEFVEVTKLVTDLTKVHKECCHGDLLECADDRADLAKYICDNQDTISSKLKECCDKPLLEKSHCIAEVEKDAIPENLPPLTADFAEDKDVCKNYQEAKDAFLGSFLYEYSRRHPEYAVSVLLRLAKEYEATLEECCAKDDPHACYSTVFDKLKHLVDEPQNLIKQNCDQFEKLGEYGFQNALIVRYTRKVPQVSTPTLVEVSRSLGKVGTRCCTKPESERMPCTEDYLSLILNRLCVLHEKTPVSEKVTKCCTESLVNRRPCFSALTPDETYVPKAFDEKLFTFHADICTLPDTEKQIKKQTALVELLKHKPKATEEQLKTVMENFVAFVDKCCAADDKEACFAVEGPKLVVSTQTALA
Chain of Ras and Rab interactor 1/Tyrosine-protein kinase ABL1 (P00519 whole entry): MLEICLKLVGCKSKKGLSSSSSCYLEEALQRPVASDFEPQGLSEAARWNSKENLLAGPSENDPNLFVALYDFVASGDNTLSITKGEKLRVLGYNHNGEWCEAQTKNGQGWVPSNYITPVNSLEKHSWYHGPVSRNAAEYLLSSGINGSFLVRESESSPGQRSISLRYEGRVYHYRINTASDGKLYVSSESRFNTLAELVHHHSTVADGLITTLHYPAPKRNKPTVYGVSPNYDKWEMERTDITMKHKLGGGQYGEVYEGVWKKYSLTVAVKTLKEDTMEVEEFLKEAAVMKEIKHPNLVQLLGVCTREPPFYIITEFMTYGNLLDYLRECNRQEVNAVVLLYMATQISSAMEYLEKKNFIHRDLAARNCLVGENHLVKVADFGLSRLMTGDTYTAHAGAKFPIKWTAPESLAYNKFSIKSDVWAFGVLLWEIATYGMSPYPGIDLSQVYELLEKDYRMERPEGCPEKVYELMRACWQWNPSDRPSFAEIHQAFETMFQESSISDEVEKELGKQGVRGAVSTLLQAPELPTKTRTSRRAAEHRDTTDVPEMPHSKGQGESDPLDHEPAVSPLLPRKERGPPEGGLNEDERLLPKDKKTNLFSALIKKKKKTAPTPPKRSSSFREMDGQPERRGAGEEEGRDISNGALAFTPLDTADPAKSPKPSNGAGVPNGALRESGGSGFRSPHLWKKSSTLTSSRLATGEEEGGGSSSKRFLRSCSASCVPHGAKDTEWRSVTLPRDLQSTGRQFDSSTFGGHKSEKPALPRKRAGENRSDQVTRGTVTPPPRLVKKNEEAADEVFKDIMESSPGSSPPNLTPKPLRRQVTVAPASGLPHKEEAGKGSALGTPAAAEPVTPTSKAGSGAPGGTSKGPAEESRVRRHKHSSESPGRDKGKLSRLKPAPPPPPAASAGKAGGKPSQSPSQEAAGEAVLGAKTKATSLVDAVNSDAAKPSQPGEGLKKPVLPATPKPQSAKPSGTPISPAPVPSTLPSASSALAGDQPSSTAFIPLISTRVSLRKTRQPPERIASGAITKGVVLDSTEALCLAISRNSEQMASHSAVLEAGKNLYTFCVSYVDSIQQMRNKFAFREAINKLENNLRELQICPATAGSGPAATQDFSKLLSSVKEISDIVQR
Chain of Ras and Rab interactor 1/Tyrosine-protein kinase ABL1 (Q13671 whole entry): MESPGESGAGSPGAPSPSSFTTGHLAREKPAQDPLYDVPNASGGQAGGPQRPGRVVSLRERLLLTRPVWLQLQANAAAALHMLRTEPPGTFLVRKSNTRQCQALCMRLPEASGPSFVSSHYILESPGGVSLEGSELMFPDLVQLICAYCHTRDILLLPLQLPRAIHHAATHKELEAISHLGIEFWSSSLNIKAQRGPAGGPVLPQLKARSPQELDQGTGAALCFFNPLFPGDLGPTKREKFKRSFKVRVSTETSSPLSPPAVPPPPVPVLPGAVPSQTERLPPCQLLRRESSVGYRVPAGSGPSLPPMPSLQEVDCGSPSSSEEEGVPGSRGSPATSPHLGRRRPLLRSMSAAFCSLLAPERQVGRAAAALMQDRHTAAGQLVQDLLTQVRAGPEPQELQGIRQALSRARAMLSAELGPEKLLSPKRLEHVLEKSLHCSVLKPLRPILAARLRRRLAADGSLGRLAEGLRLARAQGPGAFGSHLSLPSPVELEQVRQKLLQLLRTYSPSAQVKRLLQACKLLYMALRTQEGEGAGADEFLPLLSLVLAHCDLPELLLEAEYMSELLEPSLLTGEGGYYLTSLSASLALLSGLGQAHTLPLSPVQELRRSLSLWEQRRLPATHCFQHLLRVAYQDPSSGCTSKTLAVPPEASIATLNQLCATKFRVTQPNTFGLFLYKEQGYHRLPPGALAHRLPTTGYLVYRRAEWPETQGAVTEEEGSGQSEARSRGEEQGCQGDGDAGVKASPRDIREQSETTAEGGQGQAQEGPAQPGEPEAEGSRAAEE
Chain of Intestinal-type alkaline phosphatase (Homo sapiens, UniProt P09923) (P09923 whole entry): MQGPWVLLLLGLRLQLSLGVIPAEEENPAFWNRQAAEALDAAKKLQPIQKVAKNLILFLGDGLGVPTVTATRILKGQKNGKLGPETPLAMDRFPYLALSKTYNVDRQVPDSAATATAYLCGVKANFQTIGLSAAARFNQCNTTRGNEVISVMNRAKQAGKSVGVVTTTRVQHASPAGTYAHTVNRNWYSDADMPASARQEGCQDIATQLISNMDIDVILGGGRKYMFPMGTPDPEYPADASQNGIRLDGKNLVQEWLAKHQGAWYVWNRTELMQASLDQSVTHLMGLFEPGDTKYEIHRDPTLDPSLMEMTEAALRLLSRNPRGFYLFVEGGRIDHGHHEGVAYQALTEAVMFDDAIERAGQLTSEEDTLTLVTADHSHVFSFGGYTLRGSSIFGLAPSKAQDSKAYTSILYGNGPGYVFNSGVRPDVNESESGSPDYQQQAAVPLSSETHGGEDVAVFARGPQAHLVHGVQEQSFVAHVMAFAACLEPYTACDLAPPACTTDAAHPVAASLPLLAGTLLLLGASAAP
Chain of Tyrosine-protein phosphatase non-receptor type 12 (Q05209 whole entry): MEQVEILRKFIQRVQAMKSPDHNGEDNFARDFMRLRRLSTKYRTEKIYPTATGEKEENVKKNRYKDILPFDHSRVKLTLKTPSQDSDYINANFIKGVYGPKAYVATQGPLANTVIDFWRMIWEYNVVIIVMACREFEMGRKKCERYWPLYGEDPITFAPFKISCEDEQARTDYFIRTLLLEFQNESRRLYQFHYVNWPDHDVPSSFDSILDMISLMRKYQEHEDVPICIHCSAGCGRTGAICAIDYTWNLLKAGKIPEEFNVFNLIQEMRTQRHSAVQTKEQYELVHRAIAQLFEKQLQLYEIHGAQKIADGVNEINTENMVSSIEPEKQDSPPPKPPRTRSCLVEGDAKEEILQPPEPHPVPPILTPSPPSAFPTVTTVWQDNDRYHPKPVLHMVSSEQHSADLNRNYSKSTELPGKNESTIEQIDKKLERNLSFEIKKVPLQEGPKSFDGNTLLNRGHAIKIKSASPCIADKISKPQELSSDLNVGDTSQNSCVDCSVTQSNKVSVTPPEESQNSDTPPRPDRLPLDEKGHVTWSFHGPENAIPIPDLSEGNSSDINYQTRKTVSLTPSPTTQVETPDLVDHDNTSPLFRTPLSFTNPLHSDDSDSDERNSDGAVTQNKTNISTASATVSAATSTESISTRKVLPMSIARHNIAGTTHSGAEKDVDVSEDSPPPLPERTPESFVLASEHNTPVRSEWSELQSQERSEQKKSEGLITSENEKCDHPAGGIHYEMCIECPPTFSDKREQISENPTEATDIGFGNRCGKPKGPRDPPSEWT
Chain of Large T antigen (P03070 whole entry): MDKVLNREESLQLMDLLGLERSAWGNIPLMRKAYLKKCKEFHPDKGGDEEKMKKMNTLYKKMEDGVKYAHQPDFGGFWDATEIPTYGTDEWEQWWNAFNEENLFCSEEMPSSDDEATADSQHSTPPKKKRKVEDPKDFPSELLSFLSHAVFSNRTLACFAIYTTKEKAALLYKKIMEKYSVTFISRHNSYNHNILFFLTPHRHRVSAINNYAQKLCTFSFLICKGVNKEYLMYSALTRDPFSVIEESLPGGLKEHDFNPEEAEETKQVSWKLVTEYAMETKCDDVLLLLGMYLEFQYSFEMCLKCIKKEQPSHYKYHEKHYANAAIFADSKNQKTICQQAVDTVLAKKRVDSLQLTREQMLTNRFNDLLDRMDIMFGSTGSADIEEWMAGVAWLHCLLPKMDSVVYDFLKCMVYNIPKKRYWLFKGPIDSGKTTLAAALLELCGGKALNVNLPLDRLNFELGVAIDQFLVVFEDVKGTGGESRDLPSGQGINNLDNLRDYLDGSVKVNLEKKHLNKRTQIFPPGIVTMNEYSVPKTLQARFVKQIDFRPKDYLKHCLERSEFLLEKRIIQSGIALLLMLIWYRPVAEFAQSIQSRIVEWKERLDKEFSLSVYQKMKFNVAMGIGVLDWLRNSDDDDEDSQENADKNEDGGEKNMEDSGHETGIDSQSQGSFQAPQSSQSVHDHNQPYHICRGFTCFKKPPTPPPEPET

IC50 (Leucine aminopeptidase): 10.1 µM (active) | EC50 [1]: > 8.82 µM (not active) | EC50 [2]: > 79.4 µM (not active) | EC50 [3]: > 79.4 µM (inactive)
Compound: CCc1nnc(NS(=O)(=O)c2ccc(N/C=C\C(=O)c3cccc4ccccc34)cc2)s1

IC50 [4]: 1 µM (active) | IC50 [5]: 5.13 µM (active) | IC50 [6]: 4.27 µM (active) | IC50 [7]: 4.42 µM (active) | IC50 [8]: 1.91 µM (active) | IC50 [9]: 1.04 µM (active)
Compound: CCOc1cc(C=NNC(=O)c2ccc(-c3csc(Nc4ccc(C)cc4)n3)cc2)ccc1OCC(=O)O

Compound: Oc1ccc(C[C@H]2NCCc3cc(O)c(O)cc32)cc1O
IC50 [10]: 8.06 µM (active) | IC50 (Large T antigen): 9.06 µM (active) | EC50 [11]: > 100 µM (inactive) | EC50 [12]: 5.43 µM (active) | IC50 [13]: 2.33 µM (active) | IC50 (Albumin): > 94.1 µM (inactive) | IC50 [14]: 0.47 µM (active) | EC50 [15]: 6.36 µM (active) | IC50 [16]: 10.1 µM (active)

Source: ChEMBL document CHEMBL1201862, “PubChem BioAssay data set” (2004)
